Test results: paper PMC13360702, “An Agonist/Antagonist Photo‐Switchable Vitamin D Mimetic Enables Bidirectional Optical Control of VDR” (Angewandte Chemie (International Ed. in English), 2026)
Where two headings read alike, the source gives them in different places.

How the values were obtained:
[1] = system: ASC52telo hTERT cells; assay: in vitro osteogenesis model (ALP activity, von Kossa staining); assay type: cell-based, human; details: osteogenic differentiation over 15 days, dark or Cell‐Disco (370 nm, 100 ms/10 s)
Description: FIGURE 3 Optical control of VDR activity with photo‐vitD (10). (a) 10 (1 µM) enabled light‐dependent in‐cell activation of VDR in a fluorescent (mCherry) reporter gene assay. Gray curve: dark; blue curve: Cell‐Disco (370 nm; 100 ms/10 s); yellow curve: dark for 10 h, then Cell‐Disco (370 nm); magenta curve: Cell‐Disco (370 nm) for 10 h, then Cell‐Disco (450 nm). Lines are the mean, shadows are S.E.M.; n = 6. (b–d) Phenotypic model of bone formation using human […] (ASC52telo hTERT cells) and cyclic treatment with dexamethasone, 2‐phospho‐L‐ascorbic acid, and glycerol 2‐phosphate over 15 days to induce osteogenesis. Alkaline phosphatase (ALP) activity (b) and von Kossa staining of hydroxyapatite (c; representative photomicrographs in d) were used as markers of osteogenesis. Experiments were performed in the dark (gray bars) and using a Cell‐Disco (370 nm, 100 ms/10 s; blue bars). Data are the mean±SD, n = 6. * p<0.05, ** p<0.01, *** p<0.001 (vs. respective dark or illuminated DMSO (diff.) ctrl or as indicated; ANOVA with Dunnett's multiple comparisons test).
Photo‐vitD (10) thus appeared suitable for application as tool for VDR control in complex phenotypic settings. […] Photo‐vitD (10) thus enabled bidirectional optical control of osteogenesis in cellulo based on its ability to switch between agonist and antagonist states. […]
experiment was repeated independently three times. CellDiscos[9] were used for pulsed irradiation at 370 nm or 450 nm to switch 10 between photostationary states. The live cells were assayed for fluorescence reporter intensity at multiple time points over 36 h. Fluorescence intensity (FI) was measured (λex 585/10 nm, λem 610/10 nm) in bottom reading mode with a Tecan Spark Cyto (Tecan Deutschland GmbH).
Fold FI was obtained by dividing the mean F I of a test sample by the mean FI of the untreated control of the respective measurement (time point).
In vitro osteogenesis model. […] Absorbance was measured at 410 nm for 60 min every 5 min with an increase in absorbance reflecting phosphatase activity (nmol/min). For quantification via linear […]

[2] = photophysical characterization (photo‐switching, thermal relaxation); assay type: physicochemical; details: room temperature (∼21°C); pre‐illuminated at 365 nm for 30 min, then dark; (E)/(Z) ratios by NMR
Description: FIGURE 2 Development and characterization of the light‐activated vitamin D mimetic photo‐vitD (10). (a) Structure activity relationship of photo‐switchable VDR agonists 4–10. Compounds were tested in a cellular Gal4‐VDR hybrid reporter gene assay. Relative activation is normalized to the effect of 2 (1 µM) set as 100% activation. The (Z)‐states of the compounds were maintained with a Cell‐Disco [24] (370 nm). […] Data in agonist (EC50) and antagonist mode (IC50; vs. 0.3 µM 2) are shown for (E)‐ and (Z)‐10. The corresponding dose‐response curves are shown in (d). (b) Predicted binding mode of (E)‐7 (green) in the VDR ligand binding site (pdb ID 4g1d). […] (c) Predicted binding mode of (Z)‐10 (yellow) in the VDR ligand binding site. The altered regiochemistry conveys strong preference for the light‐induced (Z)‐configuration and the extended naphthoic acid motif enables a strong ionic contact to R302. (d) Dose‐response curves of (E)‐ (dark) and (Z)‐10 (370 nm) in the Gal4‐VDR reporter gene assay in agonist (top) and antagonist mode (bottom, with 0.3 µM calcitriol (2)). (Z)‐10 activated VDR; (E)‐10 and (Z)‐10 antagonized VDR activation by 0.3 µM calcitriol (2). (Z)‐10 was maintained with a Cell‐Disco [24] (370 nm). […] Absorbance was measured at 351 nm with a 25 µM solution in DMSO, one cycle is 30 sec. […] (E)/(Z) ratios were measured by NMR. […]

[3] = molecular target: T1, VDR (Homo sapiens, UniProt P11473); assay: Gal4‐VDR hybrid reporter gene assay, agonist mode; assay type: cell-based; details: for EC50: HEK293T cells, mean±S.E.M., n≥3
T1 construct: -CMV-VDR-LBD coding for the hinge region and; expressed in transfected cells; host or cells: HEK293T
T1 sequence (P11473 127-423 limits assumed): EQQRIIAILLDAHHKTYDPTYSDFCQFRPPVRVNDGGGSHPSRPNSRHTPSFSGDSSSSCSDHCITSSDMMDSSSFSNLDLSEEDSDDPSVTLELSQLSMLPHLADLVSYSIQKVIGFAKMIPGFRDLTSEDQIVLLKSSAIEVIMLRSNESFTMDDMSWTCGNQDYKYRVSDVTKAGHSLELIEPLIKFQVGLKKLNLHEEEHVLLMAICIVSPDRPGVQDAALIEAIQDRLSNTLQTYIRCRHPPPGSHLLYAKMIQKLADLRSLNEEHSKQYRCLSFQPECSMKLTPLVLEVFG
Description: FIGURE 2 Development and characterization of the light‐activated vitamin D mimetic photo‐vitD (10). (a) Structure activity relationship of photo‐switchable VDR agonists 4–10. Compounds were tested in a cellular Gal4‐VDR hybrid reporter gene assay. Relative activation is normalized to the effect of 2 (1 µM) set as 100% activation. The (Z)‐states of the compounds were maintained with a Cell‐Disco [24] (370 nm). […] Data in agonist (EC50) and antagonist mode (IC50; vs. 0.3 µM 2) are shown for (E)‐ and (Z)‐10. The corresponding dose‐response curves are shown in (d). (b) Predicted binding mode of (E)‐7 (green) in the VDR ligand binding site (pdb ID 4g1d). […] (c) Predicted binding mode of (Z)‐10 (yellow) in the VDR ligand binding site. The altered regiochemistry conveys strong preference for the light‐induced (Z)‐configuration and the extended naphthoic acid motif enables a strong ionic contact to R302. (d) Dose‐response curves of (E)‐ (dark) and (Z)‐10 (370 nm) in the Gal4‐VDR reporter gene assay in agonist (top) and antagonist mode (bottom, with 0.3 µM calcitriol (2)). (Z)‐10 activated VDR; (E)‐10 and (Z)‐10 antagonized VDR activation by 0.3 µM calcitriol (2). (Z)‐10 was maintained with a Cell‐Disco [24] (370 nm). Data are the mean±S.E.M. relative VDR act. vs. 0.3 µM calcitriol (2), n≥3. (e) Activity profile of 10 (1 µM) on nuclear receptors showing exclusive VDR activation by the light‐activated state. 10 was tested in a panel of uniform Gal4‐NR hybrid reporter gene assays. (Z)‐10 was maintained with a Cell‐Disco [24] (370 nm). Data are the mean±SD, n = 3. (f) Representative UV/Vis spectra of 10 as (E)‐ (dark) and (Z)‐states (PSS 365 nm), and after switching back to (E) with 465 nm. (g) (E)/(Z)‐ratios of 10 in the dark‐adapted state, after illumination at 365 nm for 5 min and after switching back from mostly‐(Z) with 465 nm for 5 min. (h) 10 could be rapidly and reversibly switched between the (E)‐ and (Z)‐states over multiple cycles by alternating irradiation at 365 and 465 nm. Absorbance was measured at 351 nm with a 25 µM solution in DMSO, one cycle is 30 sec. […] 10 was pre‐illuminated at 365 nm for 30 min and then kept in the dark. (E)/(Z) ratios were measured by NMR. (j) Binding mode prediction of (E)‐ and (Z)‐10 to the VDR‐antagonist complex 2zxm (residues numbered according to [21]). (Z)‐10 (yellow) forms an agonist‐like binding mode with several polar interactions at both ends of the pocket. (E)‐10 (cyan) is also anchored at the distal end of the pocket by an H‐bond network with R302 and the D176 backbone but due to the (E)‐configuration, the β‐naphthoic acid residue protrudes deeper and the pentan‐3‐ol motif rotates away from H333/H423. Therefore, (E)‐10 lacks stabilizing/activating contacts with the H333/H423 region rationalizing its antagonist properties.
Gal4-hybrid reporter gene assays. Reporter gene assays were performed in HEK293T cells (German Collection of Microorganisms and Cell Culture GmbH, DSMZ) as reported previously using Gal4 -NR LBD fusion receptor plasmids each coding for the hinge region and LBD of the canonical isoform of the respective human nuclear receptor.[7,8] pFR-Luc (Stratagene, La Jolla, CA, USA) served as a reporter plasmid and pRL-SV40 (Promega, Madison, WI, USA) was used for normalization of transfection efficiency and test compound toxicity. Cells were cultured in Dulbecco’s modified Eagle’s medium (DMEM), high glucose supplemented with 10% fetal calf serum (FCS), sodium pyruvate (1 mM), penicillin (100 U/mL), and streptomycin (100 μg/mL) at 37 °C and 5% CO2, and seeded in 96-well plates (3 × 10^4 cells/well). After 24 h, the medium was changed to Opti -MEM without supplements, and cells were transiently transfected using Lipofectamine LTX reagent (Invitrogen, Carlsbad, CA, USA) according to the manufacturer’s protocol. Five hours after transfection, cells were incubated with the test compounds […]

[4] = (Z)‐state maintained with Cell‐Disco (370 nm), read-out: VDR modulation light-activated (Z): EC50
[5] = dark‐adapted (E)‐state, read-out: VDR modulation dark (E): EC50

CCCc1cc(C(O)(CC)CC)ccc1-c1ccc(/N=N/c2ccc3cc(C(=O)O)ccc3c2)cc1C [(E)‐10]
effect on osteogenesis (ALP activity, von Kossa staining positive area) [1]: promoted osteogenesis

CCCc1cc(C(O)(CC)CC)ccc1-c1ccc(/N=N\c2ccc3cc(C(=O)O)ccc3c2)cc1C [(Z)‐10]
thermal relaxation half‐life [2]: 29 h
effect on osteogenesis (ALP activity, von Kossa staining positive area) [1]: resembled the effects of calcitriol with weaker efficacy

C=C1/C(=C\C=C2/CCC[C@]3(C)[C@@H]([C@H](C)CCCC(C)(C)O)CC[C@@H]23)C[C@@H](O)C[C@@H]1O [compound 2, 1,25‐dihydroxyvitamin D, reference compound]
effect on osteogenesis (ALP activity, von Kossa staining positive area) [1]: counteracted bone formation

CCCc1cc(C(O)(CC)CC)ccc1-c1cc(/N=N/c2ccc(CO)c(CO)c2)ccc1C [compound 4]
EC50 [3, 4]: 140 ± 300 nM
activity difference between the dark‐adapted (E)‐ and the light‐induced (Z)‐isomers ([3]; VDR agonism, (E) vs (Z)): 4 fold
EC50 [3, 5]: 600 ± 200 nM

CCC(O)(CC)c1ccc(-c2cc(/N=N/c3ccc(CO)c(CO)c3)ccc2C)c(C)c1 [compound 5]
EC50 [3, 4]: 920 ± 60 nM
EC50 [3, 5]: 1000 ± 200 nM

CCCCc1cc(C(O)(CC)CC)ccc1-c1cc(/N=N/c2ccc(CO)c(CO)c2)ccc1C [compound 6]
EC50 [3, 4]: 1100 ± 200 nM
EC50 [3, 5]: 1800 ± 300 nM

CCCc1cc(C(O)(CC)CC)ccc1-c1cc(/N=N/c2ccc(C(=O)O)c(O)c2)ccc1C [compound 7]
EC50 [3, 4]: 310 ± 40 nM
EC50 [3, 5]: 500 ± 100 nM

CCCc1cc(C(O)(CC)CC)ccc1-c1ccc(/N=N/c2ccc(C(=O)O)c(O)c2)cc1C [compound 8]
EC50 [3, 4]: 1400 ± 200 nM
EC50 [3, 5]: > 10000 nM

CCCc1cc(C(O)(CC)CC)ccc1-c1ccc(/N=N/c2ccc3[nH]c(=O)[nH]c3c2)cc1C [compound 9]
VDR modulation light-activated (Z): activation in words ([3]; (Z)‐state, Cell‐Disco (370 nm), 10 μM, inactive = no statistically significant activation at the indicated concentration): failed to activate VDR
VDR modulation dark (E): activation in words ([3]; dark‐adapted (E)‐state, 10 μM, inactive = no statistically significant activation at the indicated concentration): failed to activate VDR
